Results: patent US10227323B2, “Glucosylceramide synthase inhibitors for the treatment of diseases” (BIOMARIN PHARMACEUTICAL INC., priority 2013, dated 2019)

target: T1, GCS (Canis lupus familiaris, UniProt A0A8I3MXG6); test: Assay 1: GCS Enzymatic Assay (MDCK cell lysate, C6-NBD-Ceramide, LC/MS); assay type: biochemical, canine; conditions: Table 2; data without asterisk; read-out: IC50 (nM) generated from Assay 1
T1 sequence (A0A8I3MXG6 1-394): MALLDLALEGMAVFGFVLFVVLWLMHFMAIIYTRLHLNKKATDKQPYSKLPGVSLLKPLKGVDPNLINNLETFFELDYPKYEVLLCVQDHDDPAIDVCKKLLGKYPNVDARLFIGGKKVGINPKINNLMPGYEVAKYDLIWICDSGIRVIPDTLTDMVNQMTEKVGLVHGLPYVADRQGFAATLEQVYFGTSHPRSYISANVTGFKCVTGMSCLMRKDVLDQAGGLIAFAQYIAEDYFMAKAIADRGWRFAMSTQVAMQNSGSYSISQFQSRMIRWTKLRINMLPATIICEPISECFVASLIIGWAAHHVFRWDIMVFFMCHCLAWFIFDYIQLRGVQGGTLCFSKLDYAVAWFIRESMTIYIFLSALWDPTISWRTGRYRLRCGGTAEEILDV
Method in brief: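 LC/MS/MS measurement of glucosylceramide and NBD-ceramide after a 1 h, 37 °C reaction with 100 μM UDP-glucose and 10 μM C6-NBD-ceramide gave IC50s or percent inhibition.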

IC50 [nM] | SMILES
< 50 | O=C(N[C@H](CN1CCCC1)[C@H](O)c1cc(F)c2c(c1)OCCO2)C(=O)c1ccc(-c2ccn(C3CC3)n2)cc1 [Example 350, 2-(4-(1-cyclopropyl-1H-pyrazol-3-yl)phenyl)-N-((1R,2R)-1-(8-fluoro-2,3-dihydrobenzo[b][1,4]dioxin-6-yl)-1-hydroxy-3-(pyrrolidin-1-yl)propan-2-yl)-2-oxoacetamide]
< 50 | CC(C)n1ccc(-c2ccc(C(=O)C(=O)N[C@H](CN3CCCC3)[C@H](O)c3ccc(OC4CC4)c(Cl)c3)cc2)n1 [Example 351, N-((1R,2R)-1-(3-chloro-4-cyclopropoxyphenyl)-1-hydroxy-3-(pyrrolidin-1-yl)propan-2-yl)-2-(4-(1-isopropyl-1H-pyrazol-3-yl)phenyl)-2-oxoacetamide]
< 50 | CC(C)n1ccc(-c2ccc(C(=O)C(=O)N[C@H](CN3CCCC3)[C@H](O)c3cc(F)c4c(c3)OCCO4)cc2)n1 [Example 352, N-((1R,2R)-1-(8-fluoro-2,3-dihydrobenzo[b][1,4]dioxin-6-yl)-1-hydroxy-3-(pyrrolidin-1-yl)propan-2-yl)-2-(4-(1-isopropyl-1H-pyrazol-3-yl)phenyl)-2-oxoacetamide]
< 50 | O=C(N[C@H](CN1CCCC1)[C@H](O)c1ccc(OC2CC2)c(Cl)c1)C(=O)c1ccc2c(cnn2-c2ccc(F)cc2)c1 [Example 353, N-((1R,2R)-1-(3-chloro-4-cyclopropoxyphenyl)-1-hydroxy-3-(pyrrolidin-1-yl)propan-2-yl)-2-(1-(4-fluorophenyl)-1H-indazol-5-yl)-2-oxoacetamide]
< 50 | O=C(N[C@H](CN1CCCC1)[C@H](O)c1ccc(OC2CC2)c(Cl)c1)C(=O)c1ccc2nn(-c3ccc(F)cc3)cc2c1 [Example 354, N-((1R,2R)-1-(3-chloro-4-cyclopropoxyphenyl)-1-hydroxy-3-(pyrrolidin-1-yl)propan-2-yl)-2-(2-(4-fluorophenyl)-2H-indazol-5-yl)-2-oxoacetamide]
< 50 | C=C(C)c1ccc(-c2ccc(C(=O)C(=O)N[C@H](CN3CCCC3)[C@H](O)c3ccc(OC4CC4)c(Cl)c3)cc2)cc1 [Example 355, N-((1R,2R)-1-(3-chloro-4-cyclopropoxyphenyl)-1-hydroxy-3-(pyrrolidin-1-yl)propan-2-yl)-2-oxo-2-(4′-(prop-1-en-2-yl)-[1,1′-biphenyl]-4-yl)acetamide]
< 50 | CC(C)(O)c1ccc(-c2ccc(C(=O)C(=O)N[C@H](CN3CCCC3)[C@H](O)c3cc(F)c4c(c3)OCCO4)cc2)cc1 [Example 356, N-((1R,2R)-1-(8-fluoro-2,3-dihydrobenzo[b][1,4]dioxin-6-yl)-1-hydroxy-3-(pyrrolidin-1-yl)propan-2-yl)-2-(4′-(2-hydroxypropan-2-yl)-[1,1′-biphenyl]-4-yl)-2-oxoacetamide]
< 50 | CC(C)c1ccc(-c2ccc(C(=O)C(=O)N[C@H](CN3CCCC3)[C@H](O)c3cc(F)c4c(c3)OCCO4)cc2)cc1 [Example 357, N-((1R,2R)-1-(8-fluoro-2,3-dihydrobenzo[b][1,4]dioxin-6-yl)-1-hydroxy-3-(pyrrolidin-1-yl)propan-2-yl)-2-(4′-isopropyl-[1,1′-biphenyl]-4-yl)-2-oxoacetamide]
< 50 | CC(C)(O)c1ccc(-c2ccc(C(=O)C(=O)N[C@H](CN3CCCC3)[C@H](O)c3ccc(OC4CC4)c(Cl)c3)cc2)cc1 [Example 358, N-((1R,2R)-1-(3-chloro-4-cyclopropoxyphenyl)-1-hydroxy-3-(pyrrolidin-1-yl)propan-2-yl)-2-(4′-(2-hydroxypropan-2-yl)-[1,1′-biphenyl]-4-yl)-2-oxoacetamide]
< 50 | O=C(N[C@H](CN1CCCC1)[C@H](O)c1ccc(OC2CC2)c(F)c1)C(=O)c1ccc(-c2ccc(Cl)s2)cc1 [Example 359, 2-(4-(5-chlorothiophen-2-yl)phenyl)-N-((1R,2R)-1-(4-cyclopropoxy-3-fluorophenyl)-1-hydroxy-3-(pyrrolidin-1-yl)propan-2-yl)-2-oxoacetamide]

same assay, conditions: Table 3; MDCK cell lysate; read-out: IC50 (nM) generated from Assay 1

IC50 [nM] | SMILES
< 50 | O=C(N[C@H](CN1CCCC1)[C@H](O)c1ccc(OC2CC2)c(Cl)c1)C(=O)c1cc2cc(Cl)ccc2s1 [Example 384, N-((1R,2R)-1-(3-chloro-4-cyclopropoxyphenyl)-1-hydroxy-3-(pyrrolidin-1-yl)propan-2-yl)-2-(5-chlorobenzo[b]thiophen-2-yl)-2-oxoacetamide]
50 to 5000 | O=C(N[C@H](CN1CCCC1)[C@H](O)c1ccc(OC2CC2)c(Cl)c1)C(=O)c1ccc(-n2ccnn2)cc1 [Example 385, 2-(4-(1H-1,2,3-triazol-1-yl)phenyl)-N-((1R,2R)-1-(3-chloro-4-cyclopropoxyphenyl)-1-hydroxy-3-(pyrrolidin-1-yl)propan-2-yl)-2-oxoacetamide]
50 to 5000 | O=C(N[C@H](CN1CCCC1)[C@H](O)c1ccc(Cl)cc1)C(=O)c1cc2ccc(Cl)cc2s1 [Example 386, 2-(6-chlorobenzo[b]thiophen-2-yl)-N-((1R,2R)-1-(4-chlorophenyl)-1-hydroxy-3-(pyrrolidin-1-yl)propan-2-yl)-2-oxoacetamide]
< 50 | O=C(N[C@H](CN1CCC1)[C@H](O)c1ccc(OC2CC2)c(F)c1)C(=O)c1cc2cc(Cl)ccc2s1 [Example 387, N-((1R,2R)-3-(azetidin-1-yl)-1-(4-cyclopropoxy-3-fluorophenyl)-1-hydroxypropan-2-yl)-2-(5-chlorobenzo[b]thiophen-2-yl)-2-oxoacetamide]
< 50 | O=C(N[C@H](CN1CCCC1)[C@H](O)c1ccc(OC2CC2)cc1)C(=O)c1cc2ccccc2s1 [Example 388, 2-(benzo[b]thiophen-2-yl)-N-((1R,2R)-1-(4-cyclopropoxyphenyl)-1-hydroxy-3-(pyrrolidin-1-yl)propan-2-yl)-2-oxoacetamide]
50 to 5000 | O=C(N[C@H](CN1CCCC1)[C@H](O)c1ccc(Cl)cc1)C(=O)c1ccc(-c2ccc(F)cc2)cc1 [Example 389, N-((1R,2R)-1-(4-chlorophenyl)-1-hydroxy-3-(pyrrolidin-1-yl)propan-2-yl)-2-(4′-fluoro-[1,1′-biphenyl]-4-yl)-2-oxoacetamide]
< 50 | O=C(N[C@H](CN1CCCC1)[C@H](O)c1ccc(OC2CC2)cc1)C(F)(F)CCc1ccc2ccccc2c1 [Example 390, N-((1R,2R)-1-(4-cyclopropoxyphenyl)-1-hydroxy-3-(pyrrolidin-1-yl)propan-2-yl)-2,2-difluoro-4-(naphthalen-2-yl)butanamide]
< 50 | O=C(N[C@H](CN1CCCC1)[C@H](O)c1ccc(OC2CC2)cc1)C(=O)c1cc2cc(Cl)ccc2s1 [Example 391, 2-(5-chlorobenzo[b]thiophen-2-yl)-N-((1R,2R)-1-(4-cyclopropoxyphenyl)-1-hydroxy-3-(pyrrolidin-1-yl)propan-2-yl)-2-oxoacetamide]
< 50 | O=C(N[C@H](CN1CCCC1)[C@H](O)c1ccc(OC2CC2)cc1)C(=O)c1ccc(-c2ccc(Cl)s2)cc1 [Example 392, 2-(4-(5-chlorothiophen-2-yl)phenyl)-N-((1R,2R)-1-(4-cyclopropoxyphenyl)-1-hydroxy-3-(pyrrolidin-1-yl)propan-2-yl)-2-oxoacetamide]
< 50 | O=C(N[C@H](CN1CCCC1)[C@H](O)c1ccc(OC2CC2)cc1)C(F)(F)c1ccc(-c2ccc(Cl)s2)cc1 [Example 393, 2-(4-(5-chlorothiophen-2-yl)phenyl)-N-((1R,2R)-1-(4-cyclopropoxyphenyl)-1-hydroxy-3-(pyrrolidin-1-yl)propan-2-yl)-2,2-difluoroacetamide]
< 50 | O=C(N[C@H](CN1CCCC1)[C@H](O)c1ccc(OC2CC2)cc1)C(F)(F)c1ccc(-c2ccc(F)cc2)cc1 [Example 394, N-((1R,2R)-1-(4-cyclopropoxyphenyl)-1-hydroxy-3-(pyrrolidin-1-yl)propan-2-yl)-2,2-difluoro-2-(4′-fluoro-[1,1′-biphenyl]-4-yl)acetamide]
< 50 | O=C(N[C@H](CN1CCCC1)[C@H](O)c1ccc(OC2CC2)c(F)c1)C(=O)c1ccc(C2CC2)cc1 [Example 395, N-((1R,2R)-1-(4-cyclopropoxy-3-fluorophenyl)-1-hydroxy-3-(pyrrolidin-1-yl)propan-2-yl)-2-(4-cyclopropylphenyl)-2-oxoacetamide]
< 50 | O=C(N[C@H](CN1CCCC1)[C@H](O)c1ccc(OC2CC2)c(Cl)c1)C(F)(F)c1ccc(-c2ccc(Cl)s2)cc1 [Example 396, N-((1R,2R)-1-(3-chloro-4-cyclopropoxyphenyl)-1-hydroxy-3-(pyrrolidin-1-yl)propan-2-yl)-2-(4-(5-chlorothiophen-2-yl)phenyl)-2,2-difluoroacetamide]
< 50 | O=C(N[C@H](CN1CCCC1)[C@H](O)c1ccc(OC2CC2)c(F)c1)C(F)(F)c1ccc(-c2ccc(Cl)s2)cc1 [Example 397, 2-(4-(5-chlorothiophen-2-yl)phenyl)-N-((1R,2R)-1-(4-cyclopropoxy-3-fluorophenyl)-1-hydroxy-3-(pyrrolidin-1-yl)propan-2-yl)-2,2-difluoroacetamide]
< 50 | O=C(N[C@H](CN1CCCC1)[C@H](O)c1cc(F)c2c(c1)OCCO2)C(F)(F)c1ccc(-c2ccc(Cl)s2)cc1 [Example 398, 2-(4-(5-chlorothiophen-2-yl)phenyl)-2,2-difluoro-N-((1R,2R)-1-(8-fluoro-2,3-dihydrobenzo[b][1,4]dioxin-6-yl)-1-hydroxy-3-(pyrrolidin-1-yl)propan-2-yl)acetamide]
